Ki data for 46 compounds are collected here from patent publication US8173635B2, “Kinase inhibitors” (Vertex Pharmaceuticals Incorporated, priority 2007, dated 2012).

pKi: −log10 of the molar value. Where two headings read alike, the source gives them in different places. Where only a bound is given, the exact number is not on record here.

Common to all, as to format: biochemical
Assay [1] addresses PKC theta kinase (Homo sapiens, UniProt Q04759). The assay can be described thus: PKC theta kinase inhibition, coupled-enzyme NADH absorbance assay (Ki). Put shortly:
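Coupled-enzyme kinase assay following NADH absorbance at 340 nm, in 100 mM HEPES pH 7.5, 10 mM MgCl2, 25 mM NaCl, 0.1 mM EDTA, 0.01% Brij. Compound in DMSO preincubated with enzyme 10 min at 30 °C. Ki from initial rates by non-linear regression.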

Assay [2] addresses PKC delta kinase (Homo sapiens, UniProt Q05655). Put plainly: PKC delta kinase inhibition, coupled-enzyme NADH absorbance assay (Ki). In short, it runs like this:
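Assay buffer was 100 mM HEPES pH 7.5, 10 mM MgCl2, 25 mM NaCl, 0.1 mM EDTA, 0.01% Brij. Enzyme buffer was equilibrated with compound in DMSO for 10 min at 30 °C. Ki values were derived by non-linear regression of initial rate data.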

Assay [3] has as its target PKC alpha kinase (Homo sapiens, UniProt P17252). Put plainly: PKC alpha kinase inhibition, coupled-enzyme NADH absorbance assay (Ki).
[4] abbreviates: 240 μM ATP, 18 nM PKC theta, 30° C., read-out: Ki PKC theta.
Where [5] appears, read: 150 μM ATP, 46 nM PKC delta, 30° C., read-out: Ki PKC delta.
[6] abbreviates: 130 μM ATP, 4.5 nM PKC alpha, 30° C., read-out: Ki PKC alpha.

PKC delta kinase, sequence (Q05655 whole entry): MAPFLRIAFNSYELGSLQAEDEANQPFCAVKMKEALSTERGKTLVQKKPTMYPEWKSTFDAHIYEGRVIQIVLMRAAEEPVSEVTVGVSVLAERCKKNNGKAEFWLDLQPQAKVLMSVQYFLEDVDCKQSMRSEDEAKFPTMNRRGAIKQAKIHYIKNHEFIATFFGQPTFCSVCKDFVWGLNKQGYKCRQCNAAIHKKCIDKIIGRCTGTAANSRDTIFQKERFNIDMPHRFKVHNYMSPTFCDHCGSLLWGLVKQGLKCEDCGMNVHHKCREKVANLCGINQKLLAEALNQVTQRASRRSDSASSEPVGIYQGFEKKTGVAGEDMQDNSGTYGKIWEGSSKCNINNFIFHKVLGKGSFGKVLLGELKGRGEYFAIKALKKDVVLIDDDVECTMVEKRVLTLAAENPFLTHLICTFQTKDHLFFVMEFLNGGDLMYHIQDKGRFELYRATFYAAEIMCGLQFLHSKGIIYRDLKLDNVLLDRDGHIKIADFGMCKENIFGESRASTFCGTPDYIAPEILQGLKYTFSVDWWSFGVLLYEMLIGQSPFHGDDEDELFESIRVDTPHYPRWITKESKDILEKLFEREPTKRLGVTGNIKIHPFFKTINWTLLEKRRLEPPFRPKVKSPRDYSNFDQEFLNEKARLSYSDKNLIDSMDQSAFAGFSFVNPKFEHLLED
PKC theta kinase, sequence (Q04759 whole entry): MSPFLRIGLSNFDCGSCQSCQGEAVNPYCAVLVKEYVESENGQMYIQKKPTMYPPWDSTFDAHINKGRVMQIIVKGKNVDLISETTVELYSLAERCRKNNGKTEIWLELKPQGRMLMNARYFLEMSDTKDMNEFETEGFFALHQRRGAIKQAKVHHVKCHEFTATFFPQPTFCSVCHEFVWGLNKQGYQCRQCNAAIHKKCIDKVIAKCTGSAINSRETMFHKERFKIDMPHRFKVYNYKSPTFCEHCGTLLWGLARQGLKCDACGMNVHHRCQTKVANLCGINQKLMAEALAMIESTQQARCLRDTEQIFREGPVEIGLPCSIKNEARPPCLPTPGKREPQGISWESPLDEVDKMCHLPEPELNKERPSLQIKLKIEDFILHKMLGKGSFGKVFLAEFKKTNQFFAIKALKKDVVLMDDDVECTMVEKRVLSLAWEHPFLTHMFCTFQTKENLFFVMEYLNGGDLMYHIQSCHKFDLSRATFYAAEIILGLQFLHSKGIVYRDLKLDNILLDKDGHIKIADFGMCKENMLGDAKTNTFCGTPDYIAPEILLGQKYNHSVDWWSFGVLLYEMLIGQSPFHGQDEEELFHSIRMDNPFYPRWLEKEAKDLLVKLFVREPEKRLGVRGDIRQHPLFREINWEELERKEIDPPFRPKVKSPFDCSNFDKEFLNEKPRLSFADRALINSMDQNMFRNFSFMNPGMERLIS

Take `CC[C@](C)(CN)c1cccc(-c2ccnc3[nH]ncc23)c1` [Compound 151]: the pKi in assay [1] (setting [4]) is greater than 7.30; in assay [2] (setting [5]) it was greater than 7.30; in assay [3] (setting [6]), greater than 6.30.
For `CC[C@@](C)(CN)c1cccc(-c2ccnc3[nH]ncc23)c1` [Compound 152], the values for the pKi in assay [1] (setting [4]), in assay [2] (setting [5]) and in assay [3] (setting [6]) were greater than 7.30, greater than 6.30 and greater than 6.30, respectively.
On to `NCC1(c2cccc(-c3ccnc4[nH]ncc34)c2)CC1` [Compound 153], for which the pKi in assay [1] (setting [4]) is greater than 7.30; in assay [2] (setting [5]), greater than 5.55; in assay [3] (setting [6]), greater than 5.55.
As for `CC(C)=CCC(C)(CN)c1cccc(-c2ccnc3[nH]ncc23)c1` (stereo not drawn) [Compound 154], the figures for the pKi in assay [1] (setting [4]), in assay [2] (setting [5]) and in assay [3] (setting [6]) were greater than 7.30, greater than 6.30 and greater than 6.30, respectively.
`CC#CCC(C)(CN)c1cccc(-c2ccnc3[nH]ncc23)c1` (stereo not drawn) [Compound 155]: the pKi in assay [1] (setting [4]) was greater than 7.30; in assay [2] (setting [5]) it was greater than 7.30; in assay [3] (setting [6]) it was greater than 6.30.
In the case of `CCC(C)(CN)c1cc(CCCO)cc(-c2ccnc3[nH]ncc23)c1` (stereo not drawn) [Compound 156], the pKi in assay [1] (setting [4]) is greater than 7.30; in assay [2] (setting [5]), greater than 5.55; in assay [3] (setting [6]) it was greater than 6.30.
As for `NCC1(c2cccc(-c3ccnc4[nH]ncc34)c2)CCOCC1` [Compound 157], the pKi in assay [1] (setting [4]) was greater than 7.30; in assay [2] (setting [5]) it was greater than 5.55; in assay [3] (setting [6]), greater than 5.55.
Consider `CCC(F)c1cc(-c2ccnc3[nH]ncc23)cc(C(C)(CC)CN)c1` (stereo not drawn) [Compound 158], for which the pKi in assay [1] (setting [4]) was greater than 6.30; in assay [2] (setting [5]), less than 5.70; in assay [3] (setting [6]), greater than 5.55.
`CCC(C)(CN)c1cc(-c2ccnc3[nH]ncc23)cc(C(C)F)c1` (stereo not drawn) [Compound 159]: the pKi in assay [1] (setting [4]) was greater than 7.30; in assay [2] (setting [5]), greater than 5.55; in assay [3] (setting [6]), greater than 5.55.
Take `CCC(C)(CN)c1cc(CCCF)cc(-c2ccnc3[nH]ncc23)c1` (stereo not drawn) [Compound 160]: the pKi in assay [1] (setting [4]) was greater than 7.30; in assay [2] (setting [5]) it was greater than 5.55; in assay [3] (setting [6]), greater than 6.30.
Regarding `CCC(C)(CN)c1cc(CCC(F)F)cc(-c2ccnc3[nH]ncc23)c1` (stereo not drawn) [Compound 161], the pKi in assay [1] (setting [4]) is greater than 6.30; in assay [2] (setting [5]), less than 5.70; in assay [3] (setting [6]), greater than 5.55.
For `CCC(C)(CN)c1cc(-c2ccnc3[nH]ncc23)cc(C(F)F)c1` (stereo not drawn) [Compound 162], the values for the pKi in assay [1] (setting [4]), in assay [2] (setting [5]) and in assay [3] (setting [6]) were greater than 7.30, greater than 6.30 and greater than 6.30, respectively.
On to `CCC(C)(CN)c1cc(CC(F)(F)F)cc(-c2ccnc3[nH]ncc23)c1` (stereo not drawn) [Compound 163], for which the pKi is greater than 6.30 in assay [1] (setting [4]), less than 5.70 in assay [2] (setting [5]) and less than 5.92 in assay [3] (setting [6]).
With `CCC(C)(CN)c1cc(CCCOC)cc(-c2ccnc3[nH]ncc23)c1` (stereo not drawn) [Compound 164], the values for the pKi in assay [1] (setting [4]), in assay [2] (setting [5]) and in assay [3] (setting [6]) were greater than 7.30, greater than 5.55 and greater than 6.30, respectively.
In the case of `CCC(C)(CN)c1cc(-c2ccnc3[nH]ncc23)cc(C(C)(F)F)c1` (stereo not drawn) [Compound 165], the pKi in assay [1] (setting [4]) is greater than 7.30; in assay [2] (setting [5]), greater than 6.30; in assay [3] (setting [6]), greater than 6.30.
Regarding `CCSc1cc(-c2ccnc3[nH]ncc23)cc(C(C)(CC)CN)c1` (stereo not drawn) [Compound 166], the results for the pKi in assay [1] (setting [4]), in assay [2] (setting [5]) and in assay [3] (setting [6]) were greater than 7.30, greater than 5.55 and greater than 6.30, respectively.
`CCC(C)(CN)c1cc(Br)cc(-c2ccnc3[nH]ncc23)c1` (stereo not drawn) [Compound 167]: the pKi is greater than 7.30 in assay [1] (setting [4]), greater than 6.30 in assay [2] (setting [5]) and greater than 6.30 in assay [3] (setting [6]).
With `CCC(C)(CN)c1cc(CCO)cc(-c2ccnc3[nH]ncc23)c1` (stereo not drawn) [Compound 168], the figures for the pKi in assay [1] (setting [4]), in assay [2] (setting [5]) and in assay [3] (setting [6]) were greater than 7.30, greater than 6.30 and greater than 6.30, respectively.
In the case of `COCCCC(C)(CN)c1cccc(-c2ccnc3[nH]ncc23)c1` (stereo not drawn) [Compound 169], the pKi in assay [1] (setting [4]) was greater than 7.30; in assay [2] (setting [5]), greater than 6.30; in assay [3] (setting [6]), greater than 5.55.
For the compound `CC(CN)(Cc1cscn1)c1cccc(-c2ccnc3[nH]ncc23)c1` (stereo not drawn) [Compound 170], the figures for the pKi in assay [1] (setting [4]), in assay [2] (setting [5]) and in assay [3] (setting [6]) were greater than 7.30, greater than 5.55 and greater than 5.55, respectively.
Turning to `CC(CN)(Cc1cccnc1)c1cccc(-c2ccnc3[nH]ncc23)c1` (stereo not drawn) [Compound 171], the values for the pKi in assay [1] (setting [4]), in assay [2] (setting [5]) and in assay [3] (setting [6]) were greater than 7.30, greater than 6.30 and greater than 6.30, respectively.
In the case of `CC(CN)(Cc1ccncc1)c1cccc(-c2ccnc3[nH]ncc23)c1` (stereo not drawn) [Compound 172], the pKi in assay [1] (setting [4]) was greater than 7.30; in assay [2] (setting [5]), greater than 6.30; in assay [3] (setting [6]), greater than 5.55.
On to `COc1cccc(CC(C)(CN)c2cccc(-c3ccnc4[nH]ncc34)c2)c1` (stereo not drawn) [Compound 173], for which the pKi in assay [1] (setting [4]) was greater than 7.30; in assay [2] (setting [5]), greater than 6.30; in assay [3] (setting [6]) it was greater than 6.30.
`COc1ccc(CC(C)(CN)c2cccc(-c3ccnc4[nH]ncc34)c2)cc1` (stereo not drawn) [Compound 174]: the pKi was greater than 7.30 in assay [1] (setting [4]), greater than 6.30 in assay [2] (setting [5]) and greater than 6.30 in assay [3] (setting [6]).
In the case of `CC(CN)(Cc1ccccn1)c1cccc(-c2ccnc3[nH]ncc23)c1` (stereo not drawn) [Compound 175], the pKi in assay [1] (setting [4]) was greater than 6.30; in assay [2] (setting [5]), less than 5.70; in assay [3] (setting [6]), less than 5.92.
As for `NCCc1cc(Br)cc(-c2ccnc3[nH]ncc23)c1` [Compound 176], the pKi in assay [1] was greater than 6.30; in assay [2] it was greater than 5.55; in assay [3], less than 5.92.
For `NCC1(c2cccc(-c3ccnc4[nH]ncc34)c2)CCCCC1` [Compound 177], the pKi in assay [1] (setting [4]) is greater than 7.30; in assay [2] (setting [5]), greater than 6.30; in assay [3] (setting [6]), greater than 5.55.
For `C#CCC(CC)(CN)c1cccc(-c2ccnc3[nH]ncc23)c1` (stereo not drawn) [Compound 178], the pKi in assay [1] (setting [4]) was greater than 7.30; in assay [2] (setting [5]) it was greater than 6.30; in assay [3] (setting [6]), greater than 6.30.
Turning to `CC(CN)(CC1CCOCC1)c1cccc(-c2ccnc3[nH]ncc23)c1` (stereo not drawn) [Compound 179], the pKi in assay [1] (setting [4]) is greater than 7.30; in assay [2] (setting [5]), greater than 6.30; in assay [3] (setting [6]), greater than 6.30.
On to `CCC(C)(CN)c1cc(-c2ccnc3[nH]ncc23)cc(C(F)(F)CCC2CCCCC2)c1` (stereo not drawn) [Compound 180], for which the pKi in assay [1] (setting [4]) was less than 6.15; in assay [2] (setting [5]), less than 5.70; in assay [3] (setting [6]), less than 5.92.
For the compound `NCC1(c2cccc(-c3ccnc4[nH]ncc34)c2)CCC(F)(F)CC1` [Compound 181], the pKi in assay [1] (setting [4]) was greater than 6.30; in assay [2] (setting [5]) it was greater than 5.55; in assay [3] (setting [6]), greater than 5.55.
Take `NC[C@]1(c2cccc(-c3ccnc4[nH]ncc34)c2)CC[C@@H](O)CC1` [Compound 182]: the pKi is greater than 6.30 in assay [1] (setting [4]), greater than 5.55 in assay [2] (setting [5]) and less than 5.92 in assay [3] (setting [6]).
On the same counts, the results for `NC[C@]1(c2cccc(-c3ccnc4[nH]ncc34)c2)CC[C@H](O)CC1` [Compound 183] are greater than 6.30, greater than 5.55 and less than 5.92.
For `NCC1(c2cccc(-c3ccnc4[nH]ncc34)c2)CC=C(F)CC1` (stereo not drawn) [Compound 184] the same measures were greater than 7.30, greater than 6.30 and greater than 6.30.
Take `CC#CC[C@](C)(CN)c1cccc(-c2ccnc3[nH]ncc23)c1` [Compound 185]: the pKi in assay [1] (setting [4]), in assay [2] (setting [5]) and in assay [3] (setting [6]) was greater than 7.30 each time.
For the compound `CC#CC[C@@](C)(CN)c1cccc(-c2ccnc3[nH]ncc23)c1` [Compound 186], the values for the pKi in assay [1] (setting [4]), in assay [2] (setting [5]) and in assay [3] (setting [6]) were greater than 6.30, greater than 5.55 and greater than 5.55, respectively.
In the case of `CCCc1cc(-c2ccnc3[nH]ncc23)cc(C2(CCN)CCC2)c1` [Compound 187], the pKi in assay [1] (setting [4]) was greater than 5.55; in assay [2] (setting [5]), less than 5.70; in assay [3] (setting [6]), less than 5.92.
Consider `NCC1(c2cc(F)cc(-c3ccnc4[nH]ncc34)c2)CCC1` [Compound 188], for which the pKi in assay [1] (setting [4]) was greater than 7.30; in assay [2] (setting [5]), greater than 5.55; in assay [3] (setting [6]), greater than 6.30.
Turning to `NCC1(c2cc(N)cc(-c3ccnc4[nH]ncc34)c2)CCC1` [Compound 190], the pKi was greater than 6.30 in assay [1] (setting [4]), less than 5.70 in assay [2] (setting [5]) and less than 5.92 in assay [3] (setting [6]).
On the same counts, the results for `FC(F)CC1(c2cccc(-c3ccnc4[nH]ncc34)c2)CNC1` [Compound 191, 4-(3-(3-(2,2-Difluoroethyl)azetidin-3-yl)phenyl)-1H-pyrazolo[3,4-b]pyridine] are greater than 7.30, greater than 6.30 and greater than 6.30.
Turning to `N#CCC1(c2cccc(-c3ccnc4[nH]ncc34)c2)CNC1` [Compound 192], the pKi in assay [1] (setting [4]) was greater than 7.30; in assay [2] (setting [5]), greater than 6.30; in assay [3] (setting [6]) it was greater than 6.30.
With `C=CC1(c2cccc(-c3ccnc4[nH]ncc34)c2)CCNC1` (stereo not drawn) [Compound 193, 4-(3-(3-Vinylpyrrolidin-3-yl)phenyl)-1H-pyrazolo[3,4-b]pyridine], the pKi in assay [1] (setting [4]), in assay [2] (setting [5]) and in assay [3] (setting [6]) was greater than 6.30 throughout.
`CCC1(c2cccc(-c3ccnc4[nH]ncc34)c2)CCNC1` (stereo not drawn) [Compound 194]: the pKi in assay [1] (setting [4]) was greater than 7.30; in assay [2] (setting [5]), greater than 6.30; in assay [3] (setting [6]) it was greater than 6.30.
Regarding `CC1(c2cccc(-c3ccnc4[nH]ncc34)c2)CCNC1` (stereo not drawn) [Compound 195], the values for the pKi in assay [1] (setting [4]), in assay [2] (setting [5]) and in assay [3] (setting [6]) were greater than 7.30, greater than 6.30 and greater than 5.55, respectively.
On the same counts, the results for `OCC1(c2cccc(-c3ccnc4[nH]ncc34)c2)CCNC1` (stereo not drawn) [Compound 196] are greater than 7.30, greater than 5.55 and greater than 5.55.
On the same counts, the results for `C/C=C\C1(c2cccc(-c3ccnc4[nH]ncc34)c2)CCNC1` (stereo not drawn) [Compound 197] are greater than 7.30, greater than 6.30 and greater than 6.30.
